Experimental data: patent publication US20250145585A1, “HETEROCYCLIC INHIBITORS OF IGF-1R FOR TREATMENT OF DISEASE” (HORIZON THERAPEUTICS IRELAND DAC, priority 2023, published 2025)

Assays:
IGF-1R [1] = target: T1, IGF-1R (Homo sapiens, UniProt P08069); test: Example B-1: IGF-1R Assay (PC3 cells stimulated with IGF1, AlphaLISA on cell lysates); type: cell-based; settings: compound two hours, IGF1 200 ng/mL for 30 min, read-out: IC50, Biological Activity against IGF-1R (Table B1)
T1 construct: expressed in transfected cells
How it was run: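 IC50 from AlphaLISA read-out of lysed PC3 cells, percent inhibition normalized between vehicle and EC80 controls. Before lysis, cells had 2 h serum-free starvation, 2 h exposure to compound in 3× dilution series, and 30 min IGF1 stimulation at final 200 ng/mL.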

IGF-1R [2] = target: T1, IGF-1R; test: Example B-2: IGF-1R Assay (PathHunter cell lines, EC80 agonist challenge, chemiluminescent detection); type: cell-based; settings: PathHunter cells, compound 60 minutes at 37° C., EC80 agonist 3 hours; read-out: IC50, Biological Activity against IGF-1R (Table B2)
How it was run: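 Read-out is PathHunter chemiluminescence, developed for 1 h at room temperature after a 3 h room-temperature EC80 agonist challenge that followed 60 min compound pre-treatment at 37° C (1% vehicle). IC50 comes from % inhibition normalized to EC80 and vehicle controls.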

T1 sequence (P08069 31-1367): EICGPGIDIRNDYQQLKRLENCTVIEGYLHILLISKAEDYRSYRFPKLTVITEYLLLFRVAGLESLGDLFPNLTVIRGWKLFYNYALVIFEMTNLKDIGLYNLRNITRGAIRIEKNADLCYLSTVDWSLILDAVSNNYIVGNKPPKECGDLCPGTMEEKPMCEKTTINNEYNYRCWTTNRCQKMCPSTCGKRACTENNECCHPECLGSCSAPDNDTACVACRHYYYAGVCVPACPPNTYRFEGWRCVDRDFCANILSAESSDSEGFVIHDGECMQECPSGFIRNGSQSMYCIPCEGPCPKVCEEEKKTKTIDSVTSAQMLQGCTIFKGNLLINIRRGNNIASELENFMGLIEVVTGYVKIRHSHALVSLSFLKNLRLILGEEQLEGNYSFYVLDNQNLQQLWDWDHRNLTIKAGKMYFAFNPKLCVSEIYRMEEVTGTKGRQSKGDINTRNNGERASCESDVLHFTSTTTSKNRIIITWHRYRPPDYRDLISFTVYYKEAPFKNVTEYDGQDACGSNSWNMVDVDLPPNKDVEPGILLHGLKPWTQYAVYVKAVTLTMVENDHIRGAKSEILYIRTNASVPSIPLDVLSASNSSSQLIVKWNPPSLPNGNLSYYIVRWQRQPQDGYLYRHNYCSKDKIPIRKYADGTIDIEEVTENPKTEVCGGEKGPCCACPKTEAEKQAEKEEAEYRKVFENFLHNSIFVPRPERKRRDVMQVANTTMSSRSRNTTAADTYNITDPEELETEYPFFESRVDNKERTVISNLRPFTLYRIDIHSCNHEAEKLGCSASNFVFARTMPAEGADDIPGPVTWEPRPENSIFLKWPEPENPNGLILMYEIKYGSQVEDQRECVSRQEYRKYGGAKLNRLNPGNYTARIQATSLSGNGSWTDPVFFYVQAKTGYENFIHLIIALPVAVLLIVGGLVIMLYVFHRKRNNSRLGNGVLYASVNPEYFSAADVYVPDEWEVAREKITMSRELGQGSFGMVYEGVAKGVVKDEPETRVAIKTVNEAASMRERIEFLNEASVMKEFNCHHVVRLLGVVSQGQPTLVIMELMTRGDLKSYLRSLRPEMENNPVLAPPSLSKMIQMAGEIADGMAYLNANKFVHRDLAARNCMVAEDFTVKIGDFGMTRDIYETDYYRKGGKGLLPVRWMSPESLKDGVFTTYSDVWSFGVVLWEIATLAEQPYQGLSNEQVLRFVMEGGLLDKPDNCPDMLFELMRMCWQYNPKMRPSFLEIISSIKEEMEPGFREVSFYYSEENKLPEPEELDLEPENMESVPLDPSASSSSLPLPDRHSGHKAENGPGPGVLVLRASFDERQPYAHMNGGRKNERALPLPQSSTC

IC50 (IGF-1R [1]) | IC50 (IGF-1R [2]) | Structure (SMILES)
500 to 2000 nM | 2000 to 10000 nM | CC(C)(O)c1ccc(N2C(=O)N(Cc3ccnc(N)c3)C(C)(C)C2=O)cc1 [Compound 88, 1-((2-aminopyridin-4-yl)methyl)-3-(4-(2-hydroxypropan-2-yl)phenyl)-5,5-dimethylimidazolidine-2,4-dione]
≤ 500 nM | ≤ 500 nM | CC1(C)C(=O)N(c2ccc(C3(C(F)(F)F)CC3)cc2)C(=O)N1Cc1ccnc(NC2CC2)c1 [Compound 93, 1-((2-(cyclopropylamino)pyridin-4-yl)methyl)-5,5-dimethyl-3-(4-(1-(trifluoromethyl)cyclopropyl)phenyl)imidazolidine-2,4-dione]
≤ 500 nM | ≤ 500 nM | CC(C)Nc1cc(CN2C(=O)N(c3ccc(C4CC45CC5)cc3)C(=O)C2(C)C)ccn1 (stereo not shown) [Compound 97, 1-((2-(isopropylamino)pyridin-4-yl)methyl)-5,5-dimethyl-3-(4-(spiro[2.2]pentan-1-yl)phenyl)imidazolidine-2,4-dione]
≤ 500 nM | ≤ 500 nM | CC(C)Nc1cc(CN2C(=O)N(c3ccc(C4(C)CC4)cc3)C(=O)C2(C)C)ccn1 [Compound 98, 1-((2-(isopropylamino)pyridin-4-yl)methyl)-5,5-dimethyl-3-(4-(1-methylcyclopropyl)phenyl)imidazolidine-2,4-dione]
≤ 500 nM | 500 to 2000 nM | COC1(c2ccc(N3C(=O)N(Cc4ccnc(NC(C)C)c4)C(C)(C)C3=O)cc2)CC1 [Compound 104, 1-((2-(isopropylamino)pyridin-4-yl)methyl)-3-(4-(1-methoxycyclopropyl)phenyl)-5,5-dimethylimidazolidine-2,4-dione]
≤ 500 nM | ≤ 500 nM | CC1(C)C(=O)N(c2ccc(C3(C(F)(F)F)CC3)cc2)C(=O)N1Cc1ccnc(NC2CCOCC2)c1 [Compound 106, 5,5-dimethyl-1-((2-((tetrahydro-2H-pyran-4-yl)amino)pyridin-4-yl)methyl)-3-(4-(1-(trifluoromethyl)cyclopropyl)phenyl) imidazolidine-2,4-dione]
≤ 500 nM | ≤ 500 nM | CC(C)Nc1cc(CN2C(=O)N(c3ccc(C4(C#N)CCC4)cc3)C(=O)C2(C)C)ccn1 [Compound 107, 1-(4-(3-((2-(isopropylamino)pyridin-4-yl)methyl)-4,4-dimethyl-2,5-dioxoimidazolidin-1-yl)phenyl)cyclobutane-1-carbonitrile]
≤ 500 nM | ≤ 500 nM | CC(C)(C#N)Nc1cc(CN2C(=O)N(c3ccc(C4(C(F)(F)F)CC4)cc3)C(=O)C2(C)C)ccn1 [Compound 109, 2-((4-((5,5-dimethyl-2,4-dioxo-3-(4-(1-(trifluoromethyl)cyclopropyl)phenyl)imidazolidin-1-yl)methyl)pyridin-2-yl)amino)-2-methylpropanenitrile]
500 to 2000 nM | 2000 to 10000 nM | CN1C(=O)C(C)(C)c2ccc(N3C(=O)N(Cc4ccnc(N)c4)C(C)(C)C3=O)cc21 [Compound 110, 1-((2-aminopyridin-4-yl)methyl)-5,5-dimethyl-3-(1,3,3-trimethyl-2-oxoindolin-6-yl)imidazolidine-2,4-dione]
2000 to 10000 nM | 2000 to 10000 nM | CC(C)Nc1cc(CN2C(=O)N(c3ccc4c(c3)N(C)C(=O)C4(C)C)C(=O)C2(C)C)ccn1 [Compound 111, 1-((2-(isopropylamino)pyridin-4-yl)methyl)-5,5-dimethyl-3-(1,3,3-trimethyl-2-oxoindolin-6-yl)imidazolidine-2,4-dione]
≤ 500 nM | ≤ 500 nM | COC[C@@H](C)Nc1cc(CN2C(=O)N(c3ccc(C4(C(F)(F)F)CC4)cc3)C(=O)C2(C)C)ccn1 [Compound 114, (R)-1-((2-((1-methoxypropan-2-yl)amino)pyridin-4-yl)methyl)-5,5-dimethyl-3-(4-(1-(trifluoromethyl)cyclopropyl)phenyl)imidazolidine-2,4-dione]
≤ 500 nM | ≤ 500 nM | CC1(C)C(=O)N(c2ccc(C3(C(F)(F)F)CC3)cc2)C(=O)N1Cc1ccnc(N[C@@H]2CCOC2)c1 [Compound 118, (R)-5,5-dimethyl-1-((2-((tetrahydrofuran-3-yl)amino)pyridin-4-yl)methyl)-3-(4-(1-(trifluoromethyl)cyclopropyl)phenyl) imidazolidine-2,4-dione]
≤ 500 nM | ≤ 500 nM | CC1(C)C(=O)N(c2ccc(C3(C(F)(F)F)CC3)cc2)C(=O)N1Cc1ccnc(N[C@H]2CCOC2)c1 [Compound 119, (S)-5,5-dimethyl-1-((2-((tetrahydrofuran-3-yl)amino)pyridin-4-yl)methyl)-3-(4-(1-(trifluoromethyl)cyclopropyl)phenyl) imidazolidine-2,4-dione]
≤ 500 nM | ≤ 500 nM | CC1(C)C(=O)N(c2ccc(C3(C(F)(F)F)CC3)cc2)C(=O)N1Cc1ccnc(NC2CC3(COC3)C2)c1 [Compound 120, 1-((2-((2-oxaspiro[3.3]heptan-6-yl)amino)pyridin-4-yl)methyl)-5,5-dimethyl-3-(4-(1-(trifluoromethyl)cyclopropyl)phenyl) imidazolidine-2,4-dione]
≤ 500 nM | ≤ 500 nM | CC1(C)C(=O)N(c2ccc(C3(C(F)(F)F)CC3)cc2)C(=O)N1Cc1ccnc(N[C@H]2CCCOC2)c1 [Compound 121, (S)-5,5-dimethyl-1-((2-((tetrahydro-2H-pyran-3-yl)amino)pyridin-4-yl)methyl)-3-(4-(1-(trifluoromethyl)cyclopropyl)phenyl) imidazolidine-2,4-dione]
> 10000 nM | ≤ 500 nM | Cc1c(CN2C(=O)N(c3ccc(C4(C(F)(F)F)CC4)cc3)C(=O)C2(C)C)ccnc1NC(C)C [Compound 122, 1-((2-(isopropylamino)-3-methylpyridin-4-yl)methyl)-5,5-dimethyl-3-(4-(1-(trifluoromethyl)cyclopropyl)phenyl)imidazolidine-2,4-dione]
500 to 2000 nM | 500 to 2000 nM | CC(C)Nc1cc(CN2C(=O)N(c3ccc(C4(C#N)CC(F)(F)C4)cc3)C(=O)C2(C)C)ccn1 [Compound 123, 3,3-difluoro-1-(4-(3-((2-(isopropylamino)pyridin-4-yl)methyl)-4,4-dimethyl-2,5-dioxoimidazolidin-1-yl)phenyl)cyclobutane-1-carbonitrile]
≤ 500 nM | ≤ 500 nM | CC(C)Nc1cc(CN2C(=O)N(c3ccc(C4(C)CC4(F)F)cc3)C(=O)C2(C)C)ccn1 (stereo not shown) [Compound 124, 3-(4-(2,2-difluoro-1-methylcyclopropyl)phenyl)-1-((2-(isopropylamino)pyridin-4-yl)methyl)-5,5-dimethylimidazolidine-2,4-dione]
≤ 500 nM | ≤ 500 nM | CC(C)Nc1cc(CN2C(=O)N(c3ccc(C(C)(C)C#N)cc3)C(=O)C2(C)C)ccn1 [Compound 125, 2-(4-(3-((2-(isopropylamino)pyridin-4-yl)methyl)-4,4-dimethyl-2,5-dioxoimidazolidin-1-yl)phenyl)-2-methylpropanenitrile]
500 to 2000 nM | 500 to 2000 nM | CC(C)Nc1cc(CN2C(=O)N(c3ccc(C4(C#N)CCCCC4)cc3)C(=O)C2(C)C)ccn1 [Compound 126, 1-(4-(3-((2-(isopropylamino)pyridin-4-yl)methyl)-4,4-dimethyl-2,5-dioxoimidazolidin-1-yl)phenyl)cyclohexane-1-carbonitrile]
